pEC50: −log10 of the molar value.
Target: T1, human liver GK (Homo sapiens, UniProt P35557)
T1 construct: GST (glutathione S-transferase) (N); made in house; host or cells: E. coli
T1 sequence (P35557 1-466 isoform P35557-2): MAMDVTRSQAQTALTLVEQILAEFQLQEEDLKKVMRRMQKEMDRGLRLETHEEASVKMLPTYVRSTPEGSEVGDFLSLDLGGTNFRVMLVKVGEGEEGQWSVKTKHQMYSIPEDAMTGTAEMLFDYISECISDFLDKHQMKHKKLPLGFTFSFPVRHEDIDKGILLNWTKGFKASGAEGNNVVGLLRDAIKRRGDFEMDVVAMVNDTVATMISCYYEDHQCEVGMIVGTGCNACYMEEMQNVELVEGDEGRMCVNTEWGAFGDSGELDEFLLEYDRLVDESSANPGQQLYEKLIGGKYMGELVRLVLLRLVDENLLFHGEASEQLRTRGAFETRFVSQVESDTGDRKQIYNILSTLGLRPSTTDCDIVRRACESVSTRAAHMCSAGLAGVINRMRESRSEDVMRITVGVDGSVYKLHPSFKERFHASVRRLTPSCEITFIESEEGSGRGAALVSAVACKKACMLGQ
Test: GK activation test
Assay type: biochemical
Settings: test compound concentration needed to activate 50% of maximum activation ability; 4 mM 14C-labeled glucose, 2 mM ATP, room temperature, 20 minutes
Procedure: The GK activation test for the test compounds was performed by the method of Irwin A. Rose et al. (J. Biol. Chem. 1964 January; 239:12-7) with partial modifications.
The enzyme source used in this assay, human liver GK, was expressed in E. coli as a fusion protein with GST (glutathione S-transferase) added to the amino terminus and was purified using Glutathione Sepharose 4B (Amersham Biosciences).
The test was carried out using flat-bottom 96-well plates (Sumitomo Bakelite Co., Ltd.). A solution of the test compound in dimethyl sulfoxide (DMSO) and DMSO as a control were added to each well of the plates at a final DMSO concentration of 1%. 25 mM Hepes-KOH (pH=7.1), 25 mM KCl, 2 mM MgCl2, 2 mM ATP, 4 mM ^14C-labeled glucose (Muromachi Yakuhin) and 1 mM DTT (dithiothreitol) were further added at the indicated final concentrations, respectively. Finally, human liver GK was added at 0.24 microgram per well and the reaction was started. The reaction was carried out at room temperature.
After 20 minutes, AG1-X4 resin (BioRad) suspended in 25 mM Hepes-KOH (pH=7.1) was added and the reaction product, labeled glucose 6-phosphate, was allowed to bind thereto. The whole volume was transferred to MultiScreen plates (Millipore) and the resin was washed with water. Thereafter, the labeled glucose 6-phosphate binding to the resin was eluted with a 0.5 M NaCl solution. The labeling activity of the eluted labeled glucose 6-phosphate was measured as an index of GK activity.
The GK activity maximally activated by the test compound was described as maximum activation ability, and the test compound concentration needed to activate 50% of that ability was described as EC50.

| SMILES | pEC50 |
| --- | --- |
| CC(=O)c1ccc(/C(=C\C2CCOCC2)c2ccc(Cl)c(=O)[nH]2)cc1 [Example 1-112, 6-[(E)-1-(4-Acetylphenyl)-2-(tetrahydro-2H-pyran-4-yl)ethenyl]-3-chloropyridin-2(1H)-one] | 5.00 to 5.52 |
| Cc1ccc(C(CCC2CCCC2)c2ccc(S(=O)(=O)C3CC3)cc2)[nH]c1=O (centres unmarked) [Example 2-15, 6-{3-Cyclopentyl-1-[4-(cyclopropylsulfonyl)phenyl]propyl}-3-methylpyridin-2(1H)-one] | 6.30 to 8.00 |
| CCc1ccc(/C(=C/[C@H]2CCC(=O)C2)c2ccc(SCCCO)c(Cl)c2)[nH]c1=O [Example 1-75, 6-{(E)-1-{3-Chloro-4-[(3-hydroxypropyl)sulfanyl]phenyl}-2-[(1S)-3-oxocyclopentyl]ethenyl}-3-ethylpyridin-2(1H)-one] | 6.30 to 8.00 |
| CCOc1ccc(/C(=C\C2CCCC2)c2ccc(CC)c(=O)[nH]2)cc1Cl [Example 1-17, 6-[(E)-1-(3-Chloro-4-ethoxyphenyl)-2-cyclopentylethenyl]-3-ethylpyridin-2(1H)-one] | 6.30 to 8.00 |
| Cc1ccc(C(CC2CCOCC2)c2ccc(S(C)(=O)=O)cc2)[nH]c1=O (centres unmarked) [Example 2-19, 3-Methyl-6-{1-[4-(methylsulfonyl)phenyl]-2-(tetrahydro-2H-pyran-4-yl)ethyl}pyridin-2(1H)-one] | 5.00 to 5.52 |
| COc1ccc(/C(=C\C2CCOCC2)c2ccc(C3CC3)c(=O)[nH]2)cc1Cl [Example 1-53, 6-[(E)-1-(3-Chloro-4-methoxyphenyl)-2-(tetrahydro-2H-pyran-4-yl)ethenyl]-3-cyclopropylpyridin-2(1H)-one] | 5.52 to 6.30 |
| Cc1ccc(C(CC2CCCC2)c2ccc(S(=O)(=O)C3CC3)cc2)[nH]c1=O (centres unmarked) [Example 2-3, 6-{2-Cyclopentyl-1-[4-(cyclopropylsulfonyl)phenyl]ethyl}-3-methylpyridin-2(1H)-one] | 6.30 to 8.00 |
| O=c1[nH]c(/C(=C/C2CCCC2)c2ccc(SC3CC3)cc2)ccc1-c1ccccc1 [Example 1-29, 6-{(E)-2-Cyclopentyl-1-[4-(cyclopropylsulfanyl)phenyl]ethenyl}-3-phenylpyridin-2(1H)-one] | 6.30 to 8.00 |

Second part, the molecule after the results:

| pEC50 | SMILES |
| --- | --- |
| 6.30 to 8.00 | O=C1CC[C@H](/C=C(\c2ccc(Cl)c(C(F)(F)F)c2)c2ccc(C3CC3)c(=O)[nH]2)N1 [Example 4-105, 6-{(E)-1-[4-Chloro-3-(trifluoromethyl)phenyl]-2-[(2R)-5-oxopyrrolidin-2-yl]ethenyl}-3-cyclopropylpyridin-2(1H)-one] |
| 5.52 to 6.30 | CN1CCC(C/C=C(\c2ccc(C(C)(C)C)cc2)c2ccc(Cl)c(=O)[nH]2)C1=O (centres unmarked) [Example 6-19, 6-[(1E)-1-(4-tert-Butylphenyl)-3-(1-methyl-2-oxopyrrolidin-3-yl)prop-1-en-1-yl]-3-chloropyridin-2(1H)-one] |
| 5.00 to 5.52 | CC(C)(C)c1ccc(C(=C[C@H]2CCC(=O)N2)c2ccc(C3(O)CCC3)c(=O)[nH]2)cc1 [Example 4-203, 6-{1-(4-tert-Butylphenyl)-2-[(2R)-5-oxopyrrolidin-2-yl]ethenyl}-3-(1-hydroxycyclobutyl)pyridin-2(1H)-one] |
| 5.52 to 6.30 | CC(C)COCCc1ccc(/C(=C\[C@H]2CCC(=O)N2)c2ccc(Cl)c(=O)[nH]2)cc1 [Example 4-28, 3-Chloro-6-{(E)-1-{4-[2-(2-methylpropoxy)ethyl]phenyl}-2-[(2R)-5-oxopyrrolidin-2-yl]ethenyl}pyridin-2(1H)-one] |
| 6.30 to 8.00 | CC(C)c1ccc([C@@H](C[C@H]2CCC(=O)N2)c2ccc(C3CC3)c(=O)[nH]2)cc1 [Example 4-80, 3-Cyclopropyl-6-{(1R)-2-[(2R)-5-oxopyrrolidin-2-yl]-1-[4-(propan-2-yl)phenyl]ethyl}pyridin-2(1H)-one] |
| 6.30 to 8.00 | CC(C)(C)c1ccc(/C(=C\[C@H]2CCC(=O)N2)c2ccc(CCCO)c(=O)[nH]2)cc1 [Example 4-198, 6-{(E)-1-(4-tert-Butylphenyl)-2-[(2R)-5-oxopyrrolidin-2-yl]ethenyl}-3-(3-hydroxypropyl)pyridin-2(1H)-one] |
| 5.52 to 6.30 | Cc1cc(C(C[C@H]2CCC(=O)N2)c2ccc(C3CC3)c(=O)[nH]2)ccc1Cl (single isomer, unassigned) [Example 4-213] |
| 5.52 to 6.30 | CS(=O)(=O)c1ccc(/C(=C\[C@H]2CCC(=O)N2)c2ccc(Cl)c(=O)[nH]2)cc1C(F)(F)F [Example 4-56, 3-Chloro-6-{(E)-1-[4-(methylsulfonyl)-3-(trifluoromethyl)phenyl]-2-[(2R)-5-oxopyrrolidin-2-yl]ethenyl}pyridin-2(1H)-one] |
| 6.30 to 8.00 | Cn1cc(-c2ccc(/C(=C/[C@H]3CCC(=O)N3)c3ccc(C(C)(C)C)cc3)[nH]c2=O)cn1 [Example 4-183, 6-{(E)-1-(4-tert-Butylphenyl)-2-[(2R)-5-oxopyrrolidin-2-yl]ethenyl}-3-(1-methyl-1H-pyrazol-4-yl)pyridin-2(1H)-one] |
| 5.52 to 6.30 | CCc1ccc(/C(=C\[C@H]2CCN(C(C)=O)C2)c2ccc(Cl)c(=O)[nH]2)cc1 [Example 4-40, 6-[(E)-2-[(3R)-1-Acetylpyrrolidin-3-yl]-1-(4-ethylphenyl)ethenyl]-3-chloropyridin-2(1H)-one] |
| 5.00 to 5.52 | CC(C)(C)c1ccc(C(C[C@@H]2CCC(=O)N2)c2ccc(Cl)c(=O)[nH]2)cc1 (single isomer, unassigned) [Example 4-76] |
| 5.00 to 5.52 | N#Cc1cc(/C(=C\[C@H]2CCC(=O)N2)c2ccc(C3CC3)c(=O)[nH]2)ccc1F [Example 4-288, 5-{(E)-1-(5-Cyclopropyl-6-oxo-1,6-dihydropyridin-2-yl)-2-[(2R)-5-oxopyrrolidin-2-yl]ethenyl}-2-fluorobenzonitrile] |
| 6.30 to 8.00 | O=C1CC[C@H](/C=C(\c2ccc(S(=O)(=O)C3CC3)cc2)c2ccc(Cl)c(=O)[nH]2)N1 [Example 4-57, 3-Chloro-6-{(E)-1-[4-(cyclopropylsulfonyl)phenyl]-2-[(2R)-5-oxopyrrolidin-2-yl]ethenyl}pyridin-2(1H)-one] |
| 5.00 to 5.52 | O=C1CC[C@H](/C=C(\c2ccc(F)nc2)c2ccc(C3CC3)c(=O)[nH]2)N1 [Example 4-121, 3-Cyclopropyl-6-{(E)-1-(6-fluoropyridin-3-yl)-2-[(2R)-5-oxopyrrolidin-2-yl]ethenyl}pyridin-2(1H)-one] |
| 5.52 to 6.30 | O=C1CC[C@H](/C=C(\c2ccc(OC3CC3)cc2)c2ccc(Cl)c(=O)[nH]2)N1 [Example 4-90, 3-Chloro-6-{(E)-1-[4-(cyclopropyloxy)phenyl]-2-[(2R)-5-oxopyrrolidin-2-yl]ethenyl}pyridin-2(1H)-one] |
| 5.00 to 5.52 | CC(C)(C)c1ccc(/C(=C\Cc2nc(=O)o[nH]2)c2ccc(Cl)c(=O)[nH]2)cc1 [Example 6-23, 6-[(1E)-1-(4-tert-Butylphenyl)-3-(5-oxo-2,5-dihydro-1,2,4-oxadiazol-3-yl)prop-1-en-1-yl]-3-chloropyridin-2(1H)-one] |
| 5.52 to 6.30 | Cc1ccc(/C(=C\[C@H]2CCC(=O)N2)c2ccc(C3CC3)c(=O)[nH]2)c(Cl)c1 [Example 4-109, 6-{(E)-1-(2-Chloro-4-methylphenyl)-2-[(2R)-5-oxopyrrolidin-2-yl]ethenyl}-3-cyclopropylpyridin-2(1H)-one] |
| 6.30 to 8.00 | O=C1CC[C@H](/C=C(\c2ccc(OCC(F)(F)F)c(Cl)c2)c2ccc(C3CC3)c(=O)[nH]2)N1 [Example 4-270, 6-{(E)-1-[3-Chloro-4-(2,2,2-trifluoroethoxy)phenyl]-2-[(2R)-5-oxopyrrolidin-2-yl]ethenyl}-3-cyclopropylpyridin-2(1H)-one] |
